Measured values as given in ChEMBL document CHEMBL5512618, “MYC the oncogene from hell: Novel opportunities for cancer therapy” (Eur J Med Chem, 2024).
Each block holds one molecule with its values, some of them ahead of it.

How the values were obtained:
HL-60 = assay: Inhibition of cell development in human HL-60 cells; assay type: functional, cell-based
c-Myc/Max = c-Myc/Max (Homo sapiens, UniProt P01106+P61244); assay: Inhibition of His6-tagged Max (151 residues)(unknown origin) expressed in bacterial system/recombinant MYC ) (unknown origin) expressed in bacterial system by EMSA
[1] = Lipophilicity, logP of compound; assay type: physicochemical; conditions: octanol/water
[2] = biological target: Myc proto-oncogene protein (Homo sapiens, UniProt P01106); assay: Binding affinity to CM5 sensor chip immobilized MYC bHLHZip domain (unknown origin) assessed as dissociation constant by SPR analysis
Burkitts lymphoma cell = assay: Inhibition of cell growth in human Burkitts lymphoma cells; assay type: functional, cell-based

SMILES: O=C(O)c1ccc(Nc2ccc([N+](=O)[O-])c3nonc23)cc1
IC50 (HL-60): 30 µM

SMILES: O=[N+]([O-])c1ccc(Nc2ccccc2-c2ccccc2)c2nonc12
IC50 (HL-60): 7.2 µM

SMILES: COc1ccc2nc3cc(/N=N/c4ccc(N)nc4N)ccc3c(N)c2c1
Kd [2]: 1.6 µM
IC50 (Burkitts lymphoma cell): 0.5 µM

The next lines start with the values.

IC50 (c-Myc/Max): 34 µM
SMILES: COC(=O)c1ccc(Nc2ccc([N+](=O)[O-])c3nonc23)c(-c2ccc(C)cc2)c1

logP [1]: 8.4
SMILES: Cn1nc(C(F)(F)F)cc1-c1ccc(OCc2ccc(Cl)cc2)c(-c2ccc(Cl)c(C(F)(F)F)c2)c1O
